Assay results taken from patent US4503256A, “Phlorophenone derivatives, processes for preparing such compounds, uses and pharmaceutical compositions of phlorophenone compounds” (Noristan Limited, priority 1981, dated 1985).
In brackets after ≈: the same amount, converted by molar mass.

Columns and labels:
bacteria = details: literature (W. Riedl); cited from earlier work
[1] = Acute oral toxicity in CD-1 mice; format: in vivo; details: mouse, in vivo, male and female CD-1 mice, dose levels 1000, 464, 215 and 100 mg/kg, 7 days observation
Experimental: Male and female CD-1 mice were fasted for 18 hours prior to the experiment, but water was available ad libitum except during the observation period. The test compounds were prepared in 1% tragacanth and were administered orally to groups of two male and two female mice.
All compounds were tested at dose levels of 1000, 464, 215 and 100 mg/kg. Immediately after dosing, the mice were replaced in their "home" cage and were observed daily for 7 days post dose and any mortalities recorded.
The acute toxicities, as determined by the above procedure, of a number of representative compounds are given in the accompanying table.

Tr. RUBRUM = experiment: Minimum Inhibitory Concentration (MIC), dilution in Sabouraud liquid medium; format: cell-based; details: Trichophyton rubrum, 37° C., 5 to 15 days
Experimental: (§1) For testing against the fungi, concentrations of each of the compounds were prepared in Sabouraud liquid medium in two-fold steps from 100 μg/ml to 0.1 μg/ml. 500 μg/ml solutions were prepared by dissolving 10 mg in 5 ml of acetone, made up to 20 ml with Sabouraud liquid medium. 4 ml of the 500 μg/ml concentration was then made up to 20 ml with Sabouraud liquid medium to give a concentration of 100 μg/ml. Serial two-fold dilutions were prepared from this in the same medium down to 0.1 μg/ml.
(§2) For the fungi the same procedure was followed using the concentrations made up in Sabouraud liquid medium. The Nystatin concentrations were also dispensed in 2 ml amounts for each organism. Growth controls of Sabouraud liquid medium were included in each series.
(§3) To each of the prepared sets of concentrations of each compound were added 0.1 ml aliquots of the organism suspensions prepared as described previously. All the bottles were incubated at 37° C. for 48 hours in the case of the bacteria and from 5 to 15 days for the fungi (until growth controls had grown in each case).
(§4) After incubation the broths were examined for evidence of growth. The lowest concentration of the test compound which prevented growth was recorded as the Minimum Inhibitory Concentration (MIC).

C. ALBICANS = experiment: as above; format: cell-based; details: Candida albicans, 37° C., 5 to 15 days
Experimental: as §1, §2, §3, §4

Tr. MENTAGROPHYTES = experiment: as above; format: cell-based; details: Trichophyton mentagrophytes, 37° C., 5 to 15 days
Experimental: as §1, §2, §3, §4

Sp. SCHENKII = experiment: as above; format: cell-based; details: 37° C., 5 to 15 days
Experimental: as §1, §2, §3, §4

Mic. CANIS = experiment: as above; format: cell-based; details: Microsporum canis, 37° C., 5 to 15 days
Experimental: as §1, §2, §3, §4

St. PYOGENES = experiment: Minimum Inhibitory Concentration (MIC), broth dilution in Brain Heart Infusion broth; format: cell-based; details: Streptococcus pyogenes, 37° C., 48 hours
Experimental: (§5) For testing against the bacteria, concentrations of each of the compounds were prepared in Brain Heart Infusion broth (Oxoid CM225) in two-fold steps from 1000 μg/ml to 1 μg/ml. Solutions containing 1000 μg/ml were prepared by dissolving 20 mg of each compound in 5 ml of acetone and this was then made up to 20 ml with Brain Heart Infusion Broth. Serial two-fold dilutions were then prepared in the broth down to 1 μg/ml.
(§6) For testing against the bacteria each of the prepared test concentrations and acetone controls prepared in Brain Heart Infusion were dispensed in 2 ml amounts for each organism. A growth control of 2 ml of Brain Heart Infusion was included in each series.
as §3, §4

S. AUREUS = experiment: as above; format: cell-based, Staphylococcus aureus; details: Staphylococcus aureus; 37° C., 48 hours, Brain Heart Infusion broth; read-out: MIC S. AUREUS
Experimental: as §5, §6, §3, §4

Row | SMILES | antibiotic / antibacterial activity (in words) (bacteria) | LD50 at 168 h [1] [mg/kg] | MIC (Tr. RUBRUM) [µg/mL] | MIC (C. ALBICANS) [µg/mL] | MIC (Tr. MENTAGROPHYTES) [µg/mL] | MIC (Sp. SCHENKII) [µg/mL] | MIC (Mic. CANIS) [µg/mL] | MIC (St. PYOGENES) [µg/mL] | MIC (S. AUREUS) [µg/mL]
1 | CC(C)=CCC1=C(O)C(C(=O)CC(C)C)=C(O)C(CC=C(C)C)(CC=C(C)C)C1=O [lupulone] | certain antibiotic properties |  |  |  |  |  |  |  | 
2 | CC(C)=CCc1c(O)cc(O)c(C(=O)Cc2ccc(Cl)cc2)c1O [Compound 14, 2-(4-Chlorophenyl)acetyl-4-(3-methylbuten-2-yl)phloroglucinol] |  | 1000 | > 100 | 100 (≈ 288 µM) | 100 (≈ 288 µM) | 100 (≈ 288 µM) | 50 (≈ 144 µM) | 8 (≈ 23.1 µM) | 16 (≈ 46.1 µM)
3 | CC(C)CCC(=O)c1c(O)cc(O)c(Cc2ccccc2)c1O [Compound 25, 2-Isocaproyl-4-benzylphloroglucinol] |  | 1000 | 6 (≈ 19.1 µM) | 13 (≈ 41.4 µM) | 3 (≈ 9.54 µM) | 25 (≈ 79.5 µM) | 6 (≈ 19.1 µM) | 8 (≈ 25.4 µM) | 16 (≈ 50.9 µM)
4 | CCCCCC(=O)c1c(O)cc(O)c(CC=C(C)C)c1O [Compound 5, 2-Caproyl-4-(3-methylbuten-2-yl)phloroglucinol] |  | > 1000 | 3 (≈ 10.3 µM) | 13 (≈ 44.5 µM) | 6 (≈ 20.5 µM) | 13 (≈ 44.5 µM) | 1.6 (≈ 5.47 µM) | 4 (≈ 13.7 µM) | 8 (≈ 27.4 µM)
5 | C=CCc1c(O)cc(O)c(C(=O)Cc2ccc(Cl)cc2)c1O [Compound 23] |  | > 1000 | 13 (≈ 40.8 µM) | 13 (≈ 40.8 µM) | 13 (≈ 40.8 µM) | 25 (≈ 78.4 µM) | 6 (≈ 18.8 µM) | 8 (≈ 25.1 µM) | 32 (≈ 100 µM)
6 | CC(C)=CCC1=C(O)C(O)(CC=C(C)C)C(=O)C(C(=O)CC(C)C)=C1O (stereo not drawn) [humulon] | certain antibiotic properties |  |  |  |  |  |  |  | 
7 | CCCCC(=O)c1c(O)cc(O)c(CC=C(C)C)c1O [Compound 4, 2-Valeryl-4-(3-methylbuten-2-yl)phloroglucinol] |  | > 1000 | 13 (≈ 46.7 µM) | 25 (≈ 89.8 µM) | 13 (≈ 46.7 µM) | 25 (≈ 89.8 µM) | 13 (≈ 46.7 µM) | 16 (≈ 57.5 µM) | 64 (≈ 230 µM)
8 | CCCCCCCCC(=O)c1c(O)cc2c(c1O)CCC(C)(C)O2 [Compound 34, 5,7-dihydroxy-2,2-dimethyl-6-nonanoyl chroman] |  | > 1000 | 100 (≈ 299 µM) | 100 (≈ 299 µM) | > 100 | > 100 | > 100 | 4 (≈ 12 µM) | 500 (≈ 1490 µM)
9 | C=CCc1c(O)cc(O)c(C(=O)CC)c1O [Compound 15] |  | > 1000 | 50 (≈ 225 µM) | 100 (≈ 450 µM) | 25 (≈ 112 µM) | 50 (≈ 225 µM) | 50 (≈ 225 µM) | 125 (≈ 562 µM) | 250 (≈ 1120 µM)
10 | C=CCc1c(O)cc(O)c(C(=O)CCC(C)C)c1O [Compound 19] |  | > 1000 | 6 (≈ 22.7 µM) | 25 (≈ 94.6 µM) | 13 (≈ 49.2 µM) | 13 (≈ 49.2 µM) | 6 (≈ 22.7 µM) | 4 (≈ 15.1 µM) | 16 (≈ 60.5 µM)
11 | CC(C)CCC(=O)c1c(O)cc2c(c1O)CCC(C)(C)O2 [Compound 33, 5,7-dihydroxy-2,2-dimethyl-6-isocaproyl chroman] |  | > 1000 | 25 (≈ 85.5 µM) | 100 (≈ 342 µM) | > 100 | > 100 | 100 (≈ 342 µM) | 64 (≈ 219 µM) | 125 (≈ 428 µM)
12 | CCCC(=O)c1c(O)cc(O)c2c1OC(C)(C)CC2 [Compound 30, 5,7-dihydroxy-2,2-dimethyl-8-butyryl chroman] |  | > 1000 | 13 (≈ 49.2 µM) | 25 (≈ 94.6 µM) | 13 (≈ 49.2 µM) | 25 (≈ 94.6 µM) | 6 (≈ 22.7 µM) | 32 (≈ 121 µM) | 32 (≈ 121 µM)
13 | CCCC(=O)c1c(O)cc(O)c(Cc2ccccc2)c1O [Compound 24, 2-Butyryl-4-benzylphloroglucinol] |  | 1000 | 6 (≈ 21 µM) | 25 (≈ 87.3 µM) | 13 (≈ 45.4 µM) | 25 (≈ 87.3 µM) | 13 (≈ 45.4 µM) | 8 (≈ 27.9 µM) | 16 (≈ 55.9 µM)
14 | C=CCc1c(O)cc(O)c(C(=O)C2CCCCC2)c1O [Compound 20] |  | > 1000 | 25 (≈ 90.5 µM) | 25 (≈ 90.5 µM) | 13 (≈ 47 µM) | 25 (≈ 90.5 µM) | 13 (≈ 47 µM) | 8 (≈ 29 µM) | 32 (≈ 116 µM)
15 | CCCC(=O)c1c(O)c2c(c(C(=O)CCC)c1O)OC(C)(C)CC2 [Compound 36, 5,7-Dihydroxy-6,8-dibutyryl-2,2-dimethylchroman] |  | > 1000 | 100 (≈ 299 µM) | 100 (≈ 299 µM) | 100 (≈ 299 µM) | 100 (≈ 299 µM) | 100 (≈ 299 µM) | 64 (≈ 191 µM) | 250 (≈ 748 µM)
16 | C=CCc1c(O)cc(O)c(C(=O)CCCCC)c1O [Compound 18] |  | > 1000 | 13 (≈ 49.2 µM) | 13 (≈ 49.2 µM) | 6 (≈ 22.7 µM) | 13 (≈ 49.2 µM) | 6 (≈ 22.7 µM) | 8 (≈ 30.3 µM) | 16 (≈ 60.5 µM)
17 | CC(C)CCC(=O)c1c(O)cc(O)c2c1OC(C)(C)CC2 [Compound 31, 5,7-Dihydroxy-2,2-dimethyl-8-isocaproylchroman] |  | > 1000 | 25 (≈ 85.5 µM) | 100 (≈ 342 µM) | 6 (≈ 20.5 µM) | 6 (≈ 20.5 µM) | 13 (≈ 44.5 µM) | 8 (≈ 27.4 µM) | 16 (≈ 54.7 µM)
18 | CC(C)=CCc1c(O)cc(O)c(C(=O)CCC(C)C)c1O [Compound 7, 2-Isocaproyl-4-(3-methylbuten-2-yl)phloroglucinol] |  | 1000 | 6 (≈ 20.5 µM) | 25 (≈ 85.5 µM) | 6 (≈ 20.5 µM) | 25 (≈ 85.5 µM) | 6 (≈ 20.5 µM) | 8 (≈ 27.4 µM) | 16 (≈ 54.7 µM)
19 | CC(C)=CCc1c(O)cc(O)c(C(=O)C2CCCCC2)c1O [Compound 8, 2-Hexahydrobenzoyl-4-(3-methylbuten-2-yl)phloroglucinol] |  | > 1000 | 6 (≈ 19.7 µM) | 13 (≈ 42.7 µM) | 6 (≈ 19.7 µM) | 13 (≈ 42.7 µM) | 6 (≈ 19.7 µM) | 8 (≈ 26.3 µM) | 32 (≈ 105 µM)
